From patent US20240025906A1 (NEURON23, INC., priority 2022, published 2024)

Columns and labels:
TYK2 JH2 = target: T1, TYK2 JH2 (Homo sapiens, UniProt P29597); experiment: TYK2 JH2 binding assay (KINOMEscan KdELECT competitive binding); conditions: TYK2 JH2 domain, KINOMEscan KdELECT (Assay A); read-out: Biochemical TYK2_DiscoverX_JH2_BND_Kd
T1 construct: purchased DiscoverX (KINOMEscan KdELECT service); host or cells: E. coli BL21-derived (T7 phage display) or HEK-293
How it was run: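 Competition binding, KdELECT format. Kinase (phage-tagged, E. coli BL21-derived host; or HEK-293, DNA-tagged) + ligand-coated streptavidin beads + cpd, 1 h RT, final DMSO 0.9%. Wash, elute 30 min with 0.5 μM non-biotinylated ligand; qPCR readout. Kd: 11-pt, 3-fold series.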

[1] = system: JAK1/TYK2 pSTAT5 (Tyr694/699) in THP-1 cell line; experiment: IFNa-stimulated JAK1/TYK2 pSTAT5 (Tyr694/699) inhibition cellular assay, AlphaLISA; type: cell-based; conditions: Homo sapiens; THP-1 cells, IFNa-stimulated pSTAT5 (Tyr694/699), AlphaLISA (Assay B); read-out: Cellular_THP1_IFNa-pSTATS_TYK2
How it was run: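 THP-1 cells (2e4/well) in HBSS preincubated 1 h at 37° C. with compound (final 10000–0.04 nM, 8 points, 6-fold), then stimulated with IFNa (100 ng/mL stock) for 30 min before lysis. pSTAT5 (Tyr694/699) read by AlphaLISA at 615 nm; IC50 from four-parameter logistic fit with bottom fixed at 0 and Hill slope at −1.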

Psoriasis patients = conditions: humans; TYK2 inhibitor; background statement citing Armstrong et al, Ann of Rheu Dis, 2020; cited from earlier work

T1 sequence (P29597 589-875 limits assumed): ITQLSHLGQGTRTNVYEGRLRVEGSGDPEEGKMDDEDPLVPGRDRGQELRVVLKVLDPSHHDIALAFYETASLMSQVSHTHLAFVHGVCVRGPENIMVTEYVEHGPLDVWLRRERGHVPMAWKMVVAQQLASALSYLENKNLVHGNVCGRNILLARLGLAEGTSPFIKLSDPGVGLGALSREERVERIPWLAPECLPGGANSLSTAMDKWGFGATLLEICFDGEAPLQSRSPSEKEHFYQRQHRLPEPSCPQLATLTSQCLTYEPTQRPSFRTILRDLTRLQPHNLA

Row | Kd (TYK2 JH2) | IC50 [1] | Molecule | efficacy in Psoriasis patients (Psoriasis patients)
1 | ≤ 100 nM | > 500 nM | CNc1ncc(C#Cc2ccc(OC)cn2)c2cc(NC(=O)N3CC(OC)C3)ncc12 [Example 1083, 3-methoxy-N-[5-[2-(5-methoxy-2-pyridyl)ethynyl]-8-(methylamino)-2,7-naphthyridin-3-yl]azetidine-1-carboxamide] | 
2 | ≤ 100 nM | > 500 nM | CNc1ncc(C#Cc2ccc(OC)cn2)c2cc(NC(=O)C3COC3)ncc12 [Example 1084, N-[5-[2-(5-methoxy-2-pyridyl)ethynyl]-8-(methylamino)-2,7-naphthyridin-3-yl]oxetane-3-carboxamide] | 
3 | ≤ 100 nM | ≤ 500 nM | CNc1ncc(-c2cn3cc(N4CCO[C@@H](C)C4)ccc3n2)c2cc(NC(=O)C3(F)CC3)ncc12 [Example 1085, 1-fluoro-N-[8-(methylamino)-5-[6-[(2S)-2-methylmorpholin-4-yl]imidazo[1,2-a]pyridin-2-yl]-2,7-naphthyridin-3-yl]cyclopropanecarboxamide] | 
4 | ≤ 100 nM | ≤ 500 nM | CNc1ncc(-c2nc3cc(N(C)C(C)=O)ccc3o2)c2cc(Nc3cccc(OC)n3)ncc12 [Example 1086, N-[2-[6-[(6-methoxy-2-pyridyl)amino]-1-(methylamino)-2,7-naphthyridin-4-yl]-1,3-benzoxazol-5-yl]-N-methyl-acetamide] | 
5 | ≤ 100 nM | > 500 nM | CNc1ncc(C#Cc2ccc(OC)cn2)c2cc(Nc3cccn(-c4ccccn4)c3=O)ncc12 [Example 1087, 3-[[5-[2-(5-methoxy-2-pyridyl)ethynyl]-8-(methylamino)-2,7-naphthyridin-3-yl]amino]-1-(2-pyridyl)pyridin-2-one] | 
6 | ≤ 100 nM | ≤ 500 nM | CNc1ncc(-c2nc3ccc(N4CCOCC4)cn3n2)c2cc(Nc3cc(C(C)(C)O)ccn3)ncc12 [Example 1088, 2-[2-[[8-(methylamino)-5-(6-morpholino-[1,2,4]triazolo[1,5-a]pyridin-2-yl)-2,7-naphthyridin-3-yl]amino]-4-pyridyl]propan-2-ol] | 
7 | ≤ 100 nM | ≤ 500 nM | CNc1ncc(-c2nc3ccc(N4CCOCC4)cn3n2)c2cc(Nc3nccc(C(C)(C)O)c3F)ncc12 [Example 1089, 2-[3-fluoro-2-[[8-(methylamino)-5-(6-morpholino-[1,2,4]triazolo[1,5-a]pyridin-2-yl)-2,7-naphthyridin-3-yl]amino]-4-pyridyl]propan-2-ol] | 
8 | ≤ 100 nM | > 500 nM | CNc1ncc(-c2nc3ccc(N4CCOCC4)cn3n2)c2cc(Nc3ccc(C(F)(F)F)cn3)ncc12 [Example 1090, N1-methyl-4-(6-morpholino-[1,2,4]triazolo[1,5-a]pyridin-2-yl)-N6-[5-(trifluoromethyl)-2-pyridyl]-2,7-naphthyridine-1,6-diamine] | 
9 | ≤ 100 nM | ≤ 500 nM | CNc1ncc(-c2nc3cc(NC(=O)C4CC4)ccc3o2)c2cc(NC(=O)C3CC3)ncc12 [Example 1091, N-(2-(6-(cyclopropanecarboxamido)-1-(methylamino)-2,7-naphthyridin-4-yl)benzo[d]oxazol-5-yl)cyclopropanecarboxamide] | 
10 | ≤ 100 nM | ≤ 500 nM | CCC(=O)Nc1ccc2oc(-c3cnc(NC)c4cnc(NC(=O)C5CC5)cc34)nc2c1 [Example 1092, N-(8-(methylamino)-5-(5-propionamidobenzo[d]oxazol-2-yl)-2,7-naphthyridin-3-yl)cyclopropanecarboxamide] | 
11 | ≤ 100 nM | ≤ 500 nM | CNc1ncc(-c2nc3cc(NC(=O)CC4CC4)ccc3o2)c2cc(NC(=O)C3CC3)ncc12 [Example 1093, N-(5-(5-(2-cyclopropylacetamido)benzo[d]oxazol-2-yl)-8-(methylamino)-2,7-naphthyridin-3-yl)cyclopropanecarboxamide] | 
12 | ≤ 100 nM | ≤ 500 nM | CNc1ncc(-c2nc3ccc(N4CCOCC4)cc3s2)c2cc(NC(=O)C3CC3)ncc12 [Example 1094, N-(8-(methylamino)-5-(6-morpholinobenzo[d]thiazol-2-yl)-2,7-naphthyridin-3-yl)cyclopropanecarboxamide] | 
13 | ≤ 100 nM | ≤ 500 nM | [2H]C([2H])(C)Nc1ncc(-c2nc3ccc(N4CCOCC4)cn3n2)c2cc(NC(=O)[C@H]3C[C@H]3C)ncc12 [Example 1095, (1S,2R)—N-(8-((ethyl-1,1-d2)amino)-5-(6-morpholino-[1,2,4]triazolo[1,5-a]pyridine-2-yl)-2,7-naphthyridin-3-yl)-2-methylcyclopropane-1-carboxamide] | 
14 | ≤ 100 nM | ≤ 500 nM | [2H]C([2H])(C)Nc1ncc(-c2nc3ccc(N4CCOCC4)cn3n2)c2cc(NC(=O)C3CC3)ncc12 [Example 1096, N-(8-((ethyl-1,1-d2)amino)-5-(6-morpholino-[1,2,4]triazolo[1,5-a]pyridin-2-yl)-2,7-naphthyridin-3-yl)cyclopropanecarboxamide] | 
15 | ≤ 100 nM | ≤ 500 nM | CNc1ncc(-c2nc3cc(OC)ccc3o2)c2cc(NC(=O)NC3CC3)ncc12 [Example 1097, 1-cyclopropyl-3-(5-(5-methoxybenzo[d]oxazol-2-yl)-8-(methylamino)-2,7-naphthyridin-3-yl)urea] | 
16 | ≤ 100 nM | ≤ 500 nM | CNc1ncc(-c2nc3cc(N4CCOCC4)ccc3o2)c2cc(Nc3ccc(C(C)(C)O)cn3)ncc12 [Example 1098] | 
17 | ≤ 100 nM | ≤ 500 nM | CNc1ncc(-c2nc3cc(C(=O)NC4CC4)ccc3o2)c2cc(NC(=O)C3CC3)ncc12 [Example 1099, 2-(6-(cyclopropanecarboxamido)-1-(methylamino)-2,7-naphthyridin-4-yl)-N-cyclopropylbenzo[d]oxazole-5-carboxamide] | 
18 | ≤ 100 nM | ≤ 500 nM | CCNC(=O)c1ccc2oc(-c3cnc(NC)c4cnc(NC(=O)C5CC5)cc34)nc2c1 [Example 1100, 2-(6-(cyclopropanecarboxamido)-1-(methylamino)-2,7-naphthyridin-4-yl)-N-ethylbenzo[d]oxazole-5-carboxamide] | 
19 | ≤ 100 nM | ≤ 500 nM | CNc1ncc(-c2nc3cc(C(=O)NCC4CC4)ccc3o2)c2cc(NC(=O)C3CC3)ncc12 [Example 1101, 2-(6-(cyclopropanecarboxamido)-1-(methylamino)-2,7-naphthyridin-4-yl)-N-(cyclopropylmethyl)benzo[d]oxazole-5-carboxamide] | 
20 | ≤ 100 nM | ≤ 500 nM | [2H]C([2H])(C)Nc1ncc(-c2nc3cc(OC)ccc3o2)c2cc(NC(=O)C3CC3)ncc12 [Example 1102, N-(8-((ethyl-1,l-rig)amino)-5-(5-methoxybenzo[d]oxazol-2-yl)-2,7-naphthyridin-3-yl)cyclopropanecarboxamide] | 
21 | ≤ 100 nM | ≤ 500 nM | CNc1ncc(-c2cc3ccncc3o2)c2cc(Nc3cccc(OCCCCO)n3)ncc12 [Example 1103, 4-((6-((5-(furo[2,3-c]pyridin-2-yl)-8-(methylamino)-2,7-naphthyridin-3-yl)amino)pyridin-2-yl)oxy)butan-1-ol] | 
22 | ≤ 100 nM | ≤ 500 nM | CNc1ncc(C#Cc2ccc(-n3ccccc3=O)cc2)c2cc(NC(=O)C3(F)CC3)ncc12 [Example 1138, 1-fluoro-N-(8-(methylamino)-5-((4-(2-oxopyridin-1(2H)-yl)Phenyl)ethynyl)-2,7-naphthyridin-3-yl)cyclopropanecarboxamide] | 
23 | ≤ 100 nM | ≤ 500 nM | CNc1ncc(C#Cc2ccc(-n3c(=O)ccn3C)cc2)c2cc(NC(=O)[C@H]3C[C@H]3C)ncc12 [Example 1142, (1S,2R)-2-methyl-N-[8-(methylamino)-5-[2-[4-(2-methyl-5-oxo-pyrazol-1-yl)phenyl]ethynyl]-2,7-naphthyridin-3-yl]cyclopropanecarboxamide] | 
24 |  |  | deucravacitinib | efficacy
